41 compounds from ChEMBL document CHEMBL3507680, “University of Dundee, Gates Library screen for HepG2 cell viability” can be followed below.

This series is described as follows: Human HepG2 cell viability assay in 384 well format. The class given is toxicity, cell-based. The conditions noted are these: HepG2 cells, read-out: Inhibition. Also noted: dose 125 nL, time 70.5 hour; concentration not given beside the values.
Turning to `CCOc1ccccc1C(CC(=O)Nc1ccccc1)NC(C)=O` (stereo unspecified), the cytotoxicity at 70.5 h was -6.59%.

Consider `CCCN(C(=O)c1ocnc1C)C1CCCN(Cc2ccccc2)C1` (stereo unspecified), for which the cytotoxicity at 70.5 h was -5.56%.

Consider `CSc1ccc(NCc2csc(CS(C)(=O)=O)n2)cc1F`, for which the cytotoxicity at 70.5 h was -1.97%.

With `O=C(N1CCC(Oc2ccncc2)C1)C1(c2cccc(F)c2)CC1` (stereo unspecified), the cytotoxicity at 70.5 h is -1.35%.

For the compound `CSc1ccc(NCc2csc(C)n2)cc1F`, the cytotoxicity at 70.5 h was -0.888%.

As for `CC(C)c1ccc(CCC(=O)N(C)C2CCN(C)C2=O)cc1` (stereo unspecified), the cytotoxicity at 70.5 h is -1.43%.

For the compound `c1ccc2c(c1)CCC21CN(CCc2ccncc2)CCO1` (stereo unspecified), the cytotoxicity at 70.5 h is -4.57%.

For the compound `Cc1noc(CNc2cccc(C(=O)N3CCCC(O)C3)c2)n1` (stereo unspecified), the cytotoxicity at 70.5 h was -6.36%.

For `CCN(Cc1cccc(-c2ccncc2)c1)S(C)(=O)=O`, the cytotoxicity at 70.5 h was -4.62%.

As for `Cc1n[nH]c(C2CN(C(=O)c3ccc(=O)n(C)c3)CCO2)n1` (stereo unspecified), the cytotoxicity at 70.5 h came to 25.4%.

Take `CC(C)N(C)C(=O)C1CCN(Cc2cc3c(cc2O)CCC3)CC1`: the cytotoxicity at 70.5 h is -5.17%.

Regarding `Cc1cccn2cc(CN3CCCC(c4ccn[nH]4)C3)nc12` (stereo unspecified), the cytotoxicity at 70.5 h is 0.654%.

`CN(Cc1ccsc1)C(=O)c1ccc(F)c(NS(C)(=O)=O)c1`: the cytotoxicity at 70.5 h is -3.77%.

`CN(CC(F)(F)F)C(=O)c1ccc(F)c(NS(C)(=O)=O)c1`: the cytotoxicity at 70.5 h is -1.16%.

Take `Cc1cc(NC(=O)CN2CCCC(Cn3cncn3)C2)no1` (stereo unspecified): the cytotoxicity at 70.5 h was -3.46%.

Take `CC(C)(C)NS(=O)(=O)c1ccccc1CNCc1ccccc1`: the cytotoxicity at 70.5 h is -5.72%.

Take `CC(C)c1cc(NC(=O)CN2CCCC(Cn3cncn3)C2)on1` (stereo unspecified): the cytotoxicity at 70.5 h was determined as 17.9%.

Take `O=C(Nc1ccnc2ccnn12)c1ccc(NC2CC2)nc1`: the cytotoxicity at 70.5 h is -1.35%.

Consider `Cc1cccn2cc(CN3CCCC(c4noc(C5CC5)n4)C3)nc12` (stereo unspecified), for which the cytotoxicity at 70.5 h came to 5.44%.

For the compound `O=C(c1[nH]nc(C2CC2)c1Cl)N1CCN(C2CC2)C(=O)C1`, the cytotoxicity at 70.5 h was -1.73%.

On to `Cc1nn(C)c(C)c1OCC(=O)N1CCCC1`, for which the cytotoxicity at 70.5 h was -6%.

Turning to `O=c1[nH]c2ccccc2c(=O)n1Cc1nnnn1C1CC1`, the cytotoxicity at 70.5 h was found to be 2.86%.

With `Cc1ccc(C(C)(O)CNC(=O)c2sccc2OC(F)F)o1` (stereo unspecified), the cytotoxicity at 70.5 h is -12%.

For `Cc1ccc(C(C)(O)CNC(=O)c2scnc2C)o1` (stereo unspecified), the cytotoxicity at 70.5 h is -3.68%.

Regarding `CCC(C)(C)C(=O)NCCCOC1CCOC1` (stereo unspecified), the cytotoxicity at 70.5 h worked out at 2.9%.

Take `O=C(c1ncoc1C1CCCO1)N1CC2(CCCC2)c2ccccc21` (stereo unspecified): the cytotoxicity at 70.5 h is -6.29%.

`COCCN(C)c1ccc(NCc2cccnc2)nc1`: the cytotoxicity at 70.5 h was found to be 5.65%.

With `O=C(c1cc[nH]c(=O)c1)N1CCn2c(nnc2-c2ccccc2)C1`, the cytotoxicity at 70.5 h was -4.86%.

For `CCOC(C)c1nc(Cn2cc(C(=O)NC)ccc2=O)cs1` (stereo unspecified), the cytotoxicity at 70.5 h was -4.29%.

Consider `Cc1cnn(C2CCCN(C(=O)c3c(C)oc(C)c3C)C2)c1` (stereo unspecified), for which the cytotoxicity at 70.5 h is -0.501%.

As to `CNC(=O)Cc1ccccc1NC(=O)C1CCCC1`, the cytotoxicity at 70.5 h was found to be 29.2%.

Consider `CCC1CN(c2cnn(-c3ccccc3)c(=O)c2Cl)CCO1` (stereo unspecified), for which the cytotoxicity at 70.5 h was -12.4%.

For `COc1ccc(C)cc1CCNS(C)(=O)=O`, the cytotoxicity at 70.5 h is -10.4%.

With `COCCOCCNS(=O)(=O)C1CS(=O)(=O)c2ccccc21` (stereo unspecified), the cytotoxicity at 70.5 h was -7.79%.

Consider `CCC(=O)N1CSCC1C(=O)Nc1ccccc1-c1cccs1` (stereo unspecified), for which the cytotoxicity at 70.5 h was -9.09%.

With `CCC(=O)N1CCN(C(=O)Nc2ccccc2-c2cccs2)CC1`, the cytotoxicity at 70.5 h is -5.63%.

As to `Cn1ccnc1CCNS(=O)(=O)Cc1cccc(C#N)c1`, the cytotoxicity at 70.5 h was -8.33%.

Consider `Cc1nc(C2(NCc3ccc(C#N)cc3F)CCCC2)no1`, for which the cytotoxicity at 70.5 h was -18.6%.

Regarding `CS(=O)(=O)N1CCC(CSc2ccccc2)C1` (stereo unspecified), the cytotoxicity at 70.5 h was -13.4%.

With `O=C(NC1CCCN(c2ccc(OC(F)F)cc2)C1)c1cnccn1` (stereo unspecified), the cytotoxicity at 70.5 h was -6.56%.

In the case of `CC(C)NC(=O)CC(C)NC(=O)N(C)Cc1cc(Cl)cn1C` (stereo unspecified), the cytotoxicity at 70.5 h was -8.56%.
